Read-outs that look alike come from different tables or passages of the source.
How the values were obtained:
[1] = target: firefly luciferase, Photinus pyralis (FLuc) (Photinus pyralis, UniProt P08659); experiment: biochemical; assay type: biochemical; conditions: for FLuc Parameters Hill Coef: Hill equation fit of CRC; for Emax: response relative to PTC124 control inhibitor, negative = inhibition, read-out: FLuc Parameters Efficacy
Method: (§1) The bioluminescence outputs were measured by an EnVision reader (PerkinElmer, Wellesley, MA). Due to the relatively short luminescence duration of the RLuc assay, dispense time constants were set to match closely to the read time of the plate reader. As a result, each individual well was read with approximately the same time delay from reagent dispense to signal acquisition. See Table 1 for the 1536-well assay protocols.
(§2) Data from each assay was normalized plate-wise to corresponding intraplate controls as described previously, [17]. The same control data sets were also used for the calculation of Z′ factors from each assay. In all assays, wells containing DMSO were used as no-response controls. For the FLuc enzymatic assay, each compound-treated well on the plate was normalized to the average readings of n = 24 PTC124 treated wells and n = 48 DMSO wells from the same plate. Wells were scaled to a full range of DMSO and zero, and then normalized using the maximum response observed in the screen as 100% activity. For the RLuc enzymatic assay, n = 24 BTS treated wells for the positive control, n = 48 DMSO. MSR values were calculated using the cumulative potency differences of the de-interleaved duplicate control titrations from each plate as previously described. The normalized data from each assay plate set was corrected using DMSO-only treated assay plates read at the start and end of each assay run, and the resulting inter-plate titration data fit, using in-house software, to the standard Hill equation and dose-response curves automatically classified as described previously.
(§3) The curve classification scheme for assignment of resulting curve-fit data into CRC classes was according to Inglese et al. as follows: class 1 curves (far left) display two asymptotes, an inflection point, and r^2≥0.9; subclasses 1a vs. 1b are differentiated by full (>80%) vs. partial (≤80%) response. Class 2 curves (second from left) display a single left-hand asymptote and inflection point; subclasses 2a (or 2.1) and 2b (2.2) are differentiated by a max response and r^2, >80% and >0.9 or <80% and <0.9, respectively. Class 3 curves (second from right) have a single left-hand asymptote, no inflection point, and a response >3SD from the mean activity of the sample field.

JNK3 = system: JNK3; design: method as in Angell, R.M., et al. 2007; conditions: ref Angell, R.M., et al. 2007; read-out: PKI IC50 (µM), JNK3; cited from earlier work
[2] = target: T1, Renilla luciferase (RLuc) (Renilla reniformis, UniProt P27652); experiment: RLuc enzymatic assay (purified enzyme, qHTS, 1536-well); assay type: biochemical; conditions: 1 nM RLuc, 5 µM coelenterazine-H
T1 sequence (P27652 1-311): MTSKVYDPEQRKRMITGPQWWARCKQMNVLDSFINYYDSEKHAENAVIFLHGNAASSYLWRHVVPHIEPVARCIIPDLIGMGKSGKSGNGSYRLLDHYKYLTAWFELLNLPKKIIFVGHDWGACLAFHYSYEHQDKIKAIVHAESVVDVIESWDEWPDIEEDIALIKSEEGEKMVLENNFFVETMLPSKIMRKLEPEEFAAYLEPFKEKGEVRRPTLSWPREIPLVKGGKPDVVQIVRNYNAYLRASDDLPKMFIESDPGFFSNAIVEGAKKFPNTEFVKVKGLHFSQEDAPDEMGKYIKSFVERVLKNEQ
Method: as §1, with “1 µL of purified luciferase was then dispensed into each well for final concentrations 10 nM FLuc or 1 nM RLuc. The” for “The”
as §2, §3

GSK3β = conditions: ref Peat, A. J., et al., 2004; read-out: PKI IC50 (µM), GSK3β; cited from earlier work
CDK2 = conditions: ref Bramson, H. N., et al., 2001; read-out: PKI IC50 (µM), CDK2; cited from earlier work
RHO = system: RHO; design: method as in Stavenger, R. A., et al. 2007; conditions: ref Stavenger, R. A., et al. 2007; read-out: PKI IC50 (µM), RHO; cited from earlier work
p38 = system: p38; design: method as in Angell, R.M., et al. 2008; conditions: ref Angell, R.M., et al. 2008; read-out: PKI IC50 (µM), p38; cited from earlier work
LCK = system: LCK; design: method as in Bamborough, P., et al. 2007; conditions: ref Bamborough, P., et al. 2007; read-out: PKI IC50 (µM), LCK; cited from earlier work
TRKA = system: TRKA; design: method as in Wood, E.R., et al. 2004; conditions: ref Wood, E.R., et al. 2004; read-out: PKI IC50 (µM), TRKA; cited from earlier work
VEGFR = system: VEGFR; design: method as in Sammond, D.M., et al. 2005; conditions: ref Sammond, D.M., et al. 2005; read-out: PKI IC50 (µM), VEGFR; cited from earlier work
[3] = 10 nM FLuc, 10 µM D-luciferin, 10 µM ATP, read-out: FLuc Parameters IC50
[4] = Figure 2b, representative structures of clusters, read-out: FLuc IC50
[5] = Figure 3, read-out: IC50 (FLuc)
[6] = Figure 4b, read-out: FLuc (IC50)
[7] = Figure 2b, representative structures of clusters

Sequence of firefly luciferase, Photinus pyralis (FLuc) (P08659 whole entry): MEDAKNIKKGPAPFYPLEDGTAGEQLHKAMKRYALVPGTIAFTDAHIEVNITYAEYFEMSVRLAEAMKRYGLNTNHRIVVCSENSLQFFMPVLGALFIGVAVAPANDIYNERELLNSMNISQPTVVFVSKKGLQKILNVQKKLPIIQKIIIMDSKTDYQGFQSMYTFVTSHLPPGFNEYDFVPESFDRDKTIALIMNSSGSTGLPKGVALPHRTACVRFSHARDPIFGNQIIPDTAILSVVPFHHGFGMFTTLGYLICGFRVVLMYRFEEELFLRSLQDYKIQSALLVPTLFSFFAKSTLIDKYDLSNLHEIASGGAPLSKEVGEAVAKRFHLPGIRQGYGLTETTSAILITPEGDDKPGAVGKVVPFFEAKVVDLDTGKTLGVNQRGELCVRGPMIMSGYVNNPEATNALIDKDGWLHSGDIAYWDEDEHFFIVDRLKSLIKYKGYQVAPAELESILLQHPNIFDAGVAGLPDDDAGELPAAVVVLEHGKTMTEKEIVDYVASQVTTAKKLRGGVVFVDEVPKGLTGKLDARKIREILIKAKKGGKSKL

Compound	IC50 [1, 3]	FLuc Parameters Hill Coef [1]	IC50 ([1]; Table 3, read-out: FLuc IC50)	Emax [1]	RLuc Curve Class [2]	further results
N#Cc1c(NC(=O)c2ccccc2F)sc2c1CCCC2 [GW572738X]	820 nM	1.66	820 nM	82.6%	4	IC50 (JNK3): 0.4 µM
N#Cc1cccc(Nc2ncc(-c3ccccc3)o2)c1 [GW627834A]	1030 nM	1.21	1030 nM	84.1%	4	IC50 [1, 4]: 1000 nM
NS(=O)(=O)c1cccc(N/C=C2\C(=O)Nc3ccccc32)c1 [GW275616X]	–	–	–	–	–	IC50 [1, 4]: 18000 nM
COC(=O)Nc1nc2ccc(Oc3ccc(NC(=O)Nc4cccc(C(=O)O)c4)cc3)cc2[nH]1 [GW701427A]	120 nM	1.69	120 nM	102%	–	–
COc1cc(/C=N/Nc2ncnc3[nH]ncc23)ccc1O [GW578748X]	3660 nM	1.33	3660 nM	82.3%	4	IC50 [1, 5]: 3700 nM; IC50 (GSK3β): 3.16 µM
COc1cc(/C=N/Nc2ncnc3c2cnn3C(C)C)ccc1O [GW644007X]	5800 nM	1.86	5800 nM	40.7%	4	IC50 (GSK3β): 2.51 µM
COc1cccc(-c2c[nH]c3c(N/N=C/c4ccncc4)ncnc23)c1 [GW814408X]	–	–	–	–	–	IC50 [1, 4]: 6000 nM; IC50 [1, 6]: 5800 nM
O=C(Nc1n[nH]c2cc(-c3ccccc3)ccc12)C1CC1 [SB-732941]	–	–	–	–	–	IC50 [1, 4]: 18000 nM
COc1cccc(-n2ncc3c(N/N=C/c4ccc(C(=O)NCCN(C)C)cc4)ncnc32)c1 [GW784307A]	–	–	–	–	–	IC50 [1, 5]: 16000 nM
COc1cccc(-n2cnc3c(N/N=C/c4ccncc4)ncnc32)c1 [GW813360X]	–	–	–	–	–	IC50 [1, 5]: 16000 nM
C/C(Nc1ccc(S(N)(=O)=O)cc1)=C1/C(=O)Nc2ccccc21 [GW335962X]	3660 nM	1.51	3660 nM	68.8%	4	IC50 (CDK2): 0.36 µM
COc1cc(Nc2ncc(-c3ccccc3)o2)cc(OC)c1 [GW631581B]	6510 nM	1.29	6510 nM	88.5%	4	–
COC(=O)Nc1nc2ccc(Oc3ccc(NC(=O)Nc4cccc(Cl)c4)cc3)cc2[nH]1 [GW589961A]	–	–	–	–	–	IC50 [1, 5]: > 30000 nM
CCn1c(-c2nonc2N)nc2cnc(Oc3cccc(NC(=O)c4ccc(N(C)C)cc4)c3)cc21 [GSK248233A]	1030 nM	0.9	1030 nM	98.9%	4	IC50 [1, 6]: 1000 nM; IC50 (RHO): 0.002 µM
COC(=O)Nc1nc2cc(Oc3ccc(NC(=O)Nc4cccc(Br)c4)cc3)ccc2[nH]1 [GW694234A]	–	–	–	–	–	IC50 [1, 5]: > 30000 nM
O=C(NCC1CC1)c1ccc(-c2cccc(C(=O)NC3CC3)c2)cc1 [GW806776X]	9190 nM	1.51	9190 nM	35.2%	–	IC50 (p38): 0.075 µM
COc1ccc(-c2ccc3c(NC(=O)C4CC4)n[nH]c3n2)cc1 [SB-711237]	2310 nM	0.8	2310 nM	44.8%	4	–

Compound	IC50 [1, 3]	FLuc Parameters Hill Coef [1]	IC50 ([1]; Table 3, read-out: FLuc IC50)	Emax [1]	RLuc Curve Class [2]	further results
O=C1NC(=O)C(c2ccc(Cl)cc2)=C1Nc1ccc(Cl)c(C(=O)O)c1 [SB-360741]	–	–	–	–	–	FLuc IC50 [1, 7]: inactive
Cc1ccc(Nc2ccnc(Nc3cccc(C(N)=O)c3)n2)cc1O [GW575808A]	1460 nM	1.54	1460 nM	106%	4	IC50 (LCK): 0.19 µM
c1ccc(Nc2ncc(-c3ccccc3)o2)cc1 [GW549390X]	260 nM	1.1	260 nM	98.6%	4	–
CS(=O)(=O)CCNCc1coc(-c2ccc3ncnc(Nc4ccc(OCc5ccccc5)cc4)c3c2)c1 [GW566221A]	–	–	–	–	–	IC50 [1, 4]: 12000 nM
CCc1cccc(NC(=O)Nc2ccc(Oc3ccc4nc(NC(=O)OC)[nH]c4c3)cc2)c1 [GW673715X]	–	–	–	–	–	IC50 [1, 5]: > 30000 nM
COc1ccc(Nc2ncc(-c3ccccc3)o2)cc1OC [GW575533A]	5800 nM	1.17	5800 nM	90%	4	–
O=C1Nc2ccccc2/C1=C/Nc1ccc2[nH]c(=O)[nH]c2c1 [GW284408X]	4110 nM	1.93	4110 nM	37.9%	4	IC50 (TRKA): 0.007 µM
N#Cc1c(NC(=O)c2ccc(F)cc2)sc2c1CCCC2 [SB-347804]	920 nM	1.48	920 nM	72.5%	4	IC50 (JNK3): 3.16 µM
O=C1Nc2ccccc2/C1=C1\CCc2cc(O)ccc21 [GR105659X]	5170 nM	1.01	5170 nM	103%	–	IC50 (TRKA): 0.006 µM
NC(=O)c1cccc(Nc2nccc(Nc3cccc(F)c3)n2)c1 [GW759710A]	730 nM	1.21	730 nM	98.6%	4	IC50 (LCK): 3.3 µM
COc1cccc(-n2ncc3c(N/N=C/c4ccncc4)ncnc32)c1 [GW784752X]	–	–	–	–	–	IC50 [1, 5]: 6500 nM
CC(C)c1ccc2c(c1)NC(=O)C2=NNc1ccc(S(N)(=O)=O)cc1 [GW300653X]	–	–	–	–	–	FLuc IC50 [1, 7]: Inactive
CCN(CC)S(=O)(=O)c1ccc(OC)c(Nc2ncc(-c3ccccc3)o2)c1 [GW572401X]	–	–	–	–	–	IC50 [1, 5]: > 20000 nM
COC(=O)Nc1nc2cc(Oc3ccc(NC(=O)Nc4ccccc4)cc3)ccc2[nH]1 [GW694590A]	–	–	–	–	–	IC50 [1, 4]: 15000 nM; IC50 [1, 5]: 14600 nM; IC50 [1, 6]: 14000 nM
CN(c1ccc(NC(=O)Nc2c(Cl)cccc2Cl)cc1)c1ccnc(Nc2cccc(CS(C)(=O)=O)c2)n1 [GW809897X]	580 nM	1.11	580 nM	109%	4	IC50 [1, 6]: 560 nM; IC50 (VEGFR): 0.065 µM
Cc1cccc(Nc2ncc(-c3ccccc3)o2)c1 [GW632046X]	580 nM	1.11	580 nM	104%	4	–
COc1cccc(-n2ncc3c(N/N=C/c4ccc(F)cc4)ncnc32)c1 [GW817396X]	–	–	–	–	–	IC50 [1, 5]: 33000 nM

Reference: article PMC3591448, “Profile of the GSK Published Protein Kinase Inhibitor Set Across ATP-Dependent and-Independent Luciferases: Implications for Reporter-Gene Assays” (PLoS ONE, 2013)
